Measurements reported in paper PMC12116762, “Topobexin targets the Topoisomerase II ATPase domain for beta isoform-selective inhibition and anthracycline cardioprotection” (Nature Communications, 2025).
Several values for one entry are separate records, joined by “and”; a condition that tells them apart may be missing. Equal entries are not always repeated.

Legend:
recombinant human TOP2A = biological target: T1, recombinant human TOP2A (Homo sapiens, UniProt P11388); assay: DNA decatenation assay, recombinant TOP2A; format: biochemical; conditions: for IC50: enzyme expressed in HEK293F, n=3
T1 construct: Using recombinant full-length human TOP2A and TOP2B enzymes; YFP (N, cleaved yes); made in house; host or cells: HEK293F
Protocol: (§1) The human topoisomerase II decatenation assay was performed to determine the inhibitory effects of BNS-22 and new compounds as previously described with minor modifications[14],[36]. The assay was performed using recombinant human TOP2A or TOP2B generated using the HEK293F YFP-tag expression system as previously described[18],[19],[36]. Briefly, plasmids encoding YFP-TOP2A or YFP-TOP2B were transfected into HEK293F cells (Catalog number 11625019, Thermofisher Scientific), and TOP2 proteins were isolated from cell lysates by anti-YFP nanobody affinity chromatography. After elution by TEV protease cleavage, TOP2 proteins were FPLC purified by sequential cation exchange and size exclusion chromatography. Plasmid encoding TOP2B C88Y was generated by round-the-horn PCR mutagenesis and the sequence was verified by full-plasmid sequencing. Purified TOP2 proteins were stored in a storage buffer containing 20 mM HEPES pH 7.5, 500 mM NaCl, 0.5 mM TCEP, 25% (v/v) glycerol at -80 °C. For decatenation assays, purified TOP2 proteins were incubated with 200 ng kDNA (Topogen) in a reaction buffer containing 50 mM Tris−HCl (pH 8), 100 mM NaCl, 10 mM MgCl2, 0.5 mM DTT, 2 mM ATP, 0.1 mM tris(2-carboxyethyl)phosphine (TCEP), 5% (v/v) glycerol, 70 μg/mL bovine serum albumin, and 1/10 volume of each compound diluted in 10% DMSO (final DMSO concentration 1%) for 40 min at 37 °C. The reaction was then stopped by the addition of gel loading buffer (0.5 volumes of 60% (w/v) glycerol, 60 mM EDTA, 20 mM Tris−HCl (pH 7.5), 0.5 mg/mL bromophenol blue) and the samples were placed on ice. Reaction products were resolved by agarose gel electrophoresis in TBE buffer containing GelRed stain (Biotium). Gels were visualized using an iBright CL1000 (Thermofisher Scientific). Band intensities were quantified using FIJI, and the signal of the treated samples was normalized to the value of the control (untreated sample; 100%) present on the same gel. The normalized signal of three independent measurements was then expressed as mean ± SD. Each presented data point was obtained from distinct sample. Normalized values were plotted as a function of inhibitor concentration to determine IC50 values by nonlinear regression with variable slope using Prism 9 (GraphPad).

[1] = test system: neonatal rat ventricular cardiomyocytes (NVCM); assay: Inherent toxicity (LDH release) in NVCM; format: cell-based; set-up: key to LDH release (inherent toxicity), mean of independent replicates: % of total LDH activity; conditions: for LTC = lowest toxic concentration / LDH release (inherent toxicity), mean of independent replicates: NVCM; for LTC = lowest toxic concentration: compound alone, n=4
In short: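 Primary neonatal Wistar rat cardiomyocytes in serum- and pyruvate-free DMEM/F12 were pretreated with compound 3 h, then co-incubated 3 h with DAU (1.2 µM), or without DAU for inherent toxicity, then given a 48 h drug-free follow-up. Medium LDH activity (NAD+ reduction at 340 nm) expressed as % of total LDH.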

recombinant human TOP2B = biological target: T2, recombinant human TOP2B (Homo sapiens, UniProt Q02880); assay: DNA decatenation assay, recombinant TOP2B; format: biochemical; conditions: for SRbeta (SRTOP2B), decatenation activity: TOP2A IC50 divided by TOP2B IC50; for IC50: enzyme expressed in HEK293F, n=3
T2 construct: Using recombinant full-length human TOP2A and TOP2B enzymes; YFP (N, cleaved yes); made in house; host or cells: HEK293F
Protocol: as §1

[2] = compound alone 0.01 µM, Suppl.Fig.4
[3] = compound alone 0.1 µM, Suppl.Fig.4
[4] = compound alone 1 µM, Suppl.Fig.4
[5] = compound alone 10 µM, Suppl.Fig.4
[6] = 0.029 μM, independent replicates
[7] = 0.059 μM, independent replicates
[8] = 0.117 μM, independent replicates
[9] = 0.234 μM, independent replicates
[10] = 0.469 μM, independent replicates
[11] = 0.938 μM, independent replicates
[12] = 1.875 μM, independent replicates
[13] = 3.750 μM, independent replicates
[14] = 7.500 μM, independent replicates
[15] = 15.000 μM, independent replicates
[16] = 30.000 μM, independent replicates

T1 sequence (P11388 whole entry): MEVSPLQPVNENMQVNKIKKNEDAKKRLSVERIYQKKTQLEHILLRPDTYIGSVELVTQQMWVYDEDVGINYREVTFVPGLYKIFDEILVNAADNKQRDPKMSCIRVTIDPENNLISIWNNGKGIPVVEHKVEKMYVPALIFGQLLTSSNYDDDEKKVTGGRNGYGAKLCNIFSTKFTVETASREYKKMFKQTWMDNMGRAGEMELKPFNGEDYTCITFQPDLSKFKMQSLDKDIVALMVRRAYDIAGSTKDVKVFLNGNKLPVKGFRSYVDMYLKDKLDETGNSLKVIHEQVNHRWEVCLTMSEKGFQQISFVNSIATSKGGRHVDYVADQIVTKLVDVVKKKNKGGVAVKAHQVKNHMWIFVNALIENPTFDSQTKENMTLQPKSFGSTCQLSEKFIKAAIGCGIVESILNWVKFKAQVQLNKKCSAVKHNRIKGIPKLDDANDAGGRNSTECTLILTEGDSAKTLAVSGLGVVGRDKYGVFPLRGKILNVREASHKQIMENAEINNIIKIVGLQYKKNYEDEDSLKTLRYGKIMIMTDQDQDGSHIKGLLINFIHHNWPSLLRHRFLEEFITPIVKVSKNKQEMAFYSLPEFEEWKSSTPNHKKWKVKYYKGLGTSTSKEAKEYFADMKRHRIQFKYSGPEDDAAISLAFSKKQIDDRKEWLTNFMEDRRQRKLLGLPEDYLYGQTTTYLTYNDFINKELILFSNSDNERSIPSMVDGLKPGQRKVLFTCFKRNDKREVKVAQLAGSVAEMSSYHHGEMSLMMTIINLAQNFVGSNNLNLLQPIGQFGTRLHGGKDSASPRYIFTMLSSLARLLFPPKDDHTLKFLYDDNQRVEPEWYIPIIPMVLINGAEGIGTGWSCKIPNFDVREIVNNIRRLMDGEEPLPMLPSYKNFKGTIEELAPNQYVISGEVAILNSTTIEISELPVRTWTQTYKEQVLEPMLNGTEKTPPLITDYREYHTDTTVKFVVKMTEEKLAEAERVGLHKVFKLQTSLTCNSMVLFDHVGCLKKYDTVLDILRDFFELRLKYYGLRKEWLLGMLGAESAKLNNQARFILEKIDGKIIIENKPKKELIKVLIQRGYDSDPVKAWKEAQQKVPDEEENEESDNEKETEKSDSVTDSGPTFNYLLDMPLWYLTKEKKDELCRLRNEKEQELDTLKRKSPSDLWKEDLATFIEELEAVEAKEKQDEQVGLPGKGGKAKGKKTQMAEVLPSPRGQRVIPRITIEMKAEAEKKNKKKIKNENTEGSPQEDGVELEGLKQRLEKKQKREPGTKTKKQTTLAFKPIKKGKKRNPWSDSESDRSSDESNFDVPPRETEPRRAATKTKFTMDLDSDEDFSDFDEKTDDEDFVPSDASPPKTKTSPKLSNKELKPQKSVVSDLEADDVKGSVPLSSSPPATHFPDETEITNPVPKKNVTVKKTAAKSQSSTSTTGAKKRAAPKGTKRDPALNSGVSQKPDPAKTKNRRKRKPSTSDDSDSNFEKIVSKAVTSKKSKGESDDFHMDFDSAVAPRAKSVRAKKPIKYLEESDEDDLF
T2 sequence (Q02880 1-1621 isoform Q02880-2): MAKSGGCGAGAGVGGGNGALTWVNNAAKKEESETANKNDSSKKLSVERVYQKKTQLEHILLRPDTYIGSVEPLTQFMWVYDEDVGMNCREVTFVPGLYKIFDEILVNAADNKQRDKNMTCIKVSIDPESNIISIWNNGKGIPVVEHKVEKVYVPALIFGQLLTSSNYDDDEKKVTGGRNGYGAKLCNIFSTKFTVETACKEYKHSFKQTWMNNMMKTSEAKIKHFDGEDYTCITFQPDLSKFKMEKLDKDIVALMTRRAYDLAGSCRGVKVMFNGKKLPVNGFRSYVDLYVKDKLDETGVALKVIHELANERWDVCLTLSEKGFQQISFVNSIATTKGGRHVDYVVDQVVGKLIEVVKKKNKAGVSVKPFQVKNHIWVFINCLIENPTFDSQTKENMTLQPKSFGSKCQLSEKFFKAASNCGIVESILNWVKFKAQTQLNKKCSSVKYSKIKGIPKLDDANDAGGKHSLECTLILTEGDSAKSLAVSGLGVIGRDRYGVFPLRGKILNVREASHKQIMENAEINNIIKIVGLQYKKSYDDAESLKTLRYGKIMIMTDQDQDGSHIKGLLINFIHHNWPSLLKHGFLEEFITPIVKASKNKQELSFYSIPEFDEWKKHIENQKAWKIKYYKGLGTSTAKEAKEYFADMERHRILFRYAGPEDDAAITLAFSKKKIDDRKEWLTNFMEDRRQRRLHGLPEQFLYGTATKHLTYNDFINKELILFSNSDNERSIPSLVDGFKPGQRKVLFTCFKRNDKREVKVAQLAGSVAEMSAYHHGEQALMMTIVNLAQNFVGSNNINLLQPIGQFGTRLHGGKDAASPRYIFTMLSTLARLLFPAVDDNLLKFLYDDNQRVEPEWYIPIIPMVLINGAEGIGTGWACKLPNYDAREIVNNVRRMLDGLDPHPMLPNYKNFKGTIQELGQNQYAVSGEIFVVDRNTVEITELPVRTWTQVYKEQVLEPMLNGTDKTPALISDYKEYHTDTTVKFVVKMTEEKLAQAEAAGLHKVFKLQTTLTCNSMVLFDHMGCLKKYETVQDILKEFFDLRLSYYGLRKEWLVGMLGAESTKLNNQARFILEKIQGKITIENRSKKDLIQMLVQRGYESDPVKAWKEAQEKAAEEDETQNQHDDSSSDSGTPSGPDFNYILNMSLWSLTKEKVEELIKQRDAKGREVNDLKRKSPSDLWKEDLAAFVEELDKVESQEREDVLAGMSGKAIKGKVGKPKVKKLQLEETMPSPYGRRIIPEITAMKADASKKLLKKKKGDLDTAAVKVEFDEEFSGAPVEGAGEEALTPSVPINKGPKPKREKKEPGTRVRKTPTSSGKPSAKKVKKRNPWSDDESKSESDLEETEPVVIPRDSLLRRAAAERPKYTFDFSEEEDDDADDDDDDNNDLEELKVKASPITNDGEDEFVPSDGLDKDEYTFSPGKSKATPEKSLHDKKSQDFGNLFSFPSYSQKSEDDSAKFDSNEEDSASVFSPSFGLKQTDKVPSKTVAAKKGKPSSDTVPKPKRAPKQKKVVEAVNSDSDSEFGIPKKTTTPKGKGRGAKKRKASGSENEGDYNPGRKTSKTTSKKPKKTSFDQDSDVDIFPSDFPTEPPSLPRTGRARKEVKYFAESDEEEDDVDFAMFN

## CCCc1cc(=O)oc2c(C(=O)N3CCCc4ccccc43)c(OCCN3CCN(C)CC3)ccc12 [topobexin (9)]
Recombinant human TOP2A; 0.02 μM, independent replicates, read-out: Normalized % TOP2A activity, decatenation
  remaining activity at 0.02 µM: 87.1%
Recombinant human TOP2A; 0.313 μM, independent replicates, read-out: Normalized % TOP2A activity, decatenation
  remaining activity at 0.313 µM: 96.1%
Recombinant human TOP2A; 0.625 μM, independent replicates, read-out: Normalized % TOP2A activity, decatenation
  remaining activity at 0.625 µM: 91.5%
Recombinant human TOP2A
  IC50: 4.8 µM
[1]
  LTC = lowest toxic concentration: > 100 µM
[1]; compound 100 µM alone
  LDH release, mean: 16.49 % of total LDH
[1]; compound 100 µM alone, independent replicates
  LDH release: 16.0714 % of total LDH and 14.563 % of total LDH and 13.722 % of total LDH and 21.6038 % of total LDH
[1]; compound alone 0.01 µM, Suppl.Fig.6c
  LDH release (inherent toxicity), mean of independent replicates: 15.0001
[1]; compound alone 0.1 µM, Suppl.Fig.6c
  LDH release (inherent toxicity), mean of independent replicates: 13.7512
[1]; compound alone 1 µM, Suppl.Fig.6c
  LDH release (inherent toxicity), mean of independent replicates: 12.2924
[1]; compound alone 10 µM, Suppl.Fig.6c
  LDH release (inherent toxicity), mean of independent replicates: 14.4604
[1]; compound alone 30 µM, Suppl.Fig.6c
  LDH release (inherent toxicity), mean of independent replicates: 15.0547
[1]; compound alone 100 µM, Suppl.Fig.6c
  LDH release (inherent toxicity), mean of independent replicates: 16.49
Recombinant human TOP2B; 0.039 μM, independent replicates, read-out: Normalized % TOP2B activity, decatenation
  remaining activity at 0.039 µM: 92.3%
Recombinant human TOP2B; 0.313 μM, independent replicates, read-out: Normalized % TOP2B activity, decatenation
  remaining activity at 0.313 µM: 29.3%
Recombinant human TOP2B; 0.625 μM, independent replicates, read-out: Normalized % TOP2B activity, decatenation
  remaining activity at 0.625 µM: 15.5%
Recombinant human TOP2B; 1.250 μM, independent replicates, read-out: Normalized % TOP2B activity, decatenation
  remaining activity at 1.25 µM: 10.9%
Recombinant human TOP2B; 2.500 μM, independent replicates, read-out: Normalized % TOP2B activity, decatenation
  remaining activity at 2.5 µM: 11.1%
Recombinant human TOP2B; 5.000 μM, independent replicates, read-out: Normalized % TOP2B activity, decatenation
  remaining activity at 5 µM: 9.87%
Recombinant human TOP2B; 20.000 μM, independent replicates, read-out: Normalized % TOP2B activity, decatenation
  remaining activity at 20 µM: 5.03%
Recombinant human TOP2B
  SRbeta (SRTOP2B), decatenation activity: 25
  IC50: 0.19 µM

## CCCc1cc(=O)oc2c(C(=O)N3CCCc4ccccc43)c(OCCO)ccc12 [5c]
Recombinant human TOP2A
  IC50: 3.21 µM
[1]
  LTC = lowest toxic concentration: 100 µM
[1]; [2]
  LDH release (inherent toxicity), mean of independent replicates: 14.5952
[1]; [3]
  LDH release (inherent toxicity), mean of independent replicates: 14.7832
[1]; [4]
  LDH release (inherent toxicity), mean of independent replicates: 14.0641
[1]; [5]
  LDH release (inherent toxicity), mean of independent replicates: 18.571
[1]; compound alone 30 µM, Suppl.Fig.4
  LDH release (inherent toxicity), mean of independent replicates: 18.0914
[1]; compound alone 100 µM, Suppl.Fig.4
  LDH release (inherent toxicity), mean of independent replicates: 21.5856
Recombinant human TOP2B; 0.059 μM, independent replicates, read-out: Normalized % TOP2B activity, decatenation
  remaining activity at 0.059 µM: 106%
Recombinant human TOP2B; 0.117 μM, independent replicates, read-out: Normalized % TOP2B activity, decatenation
  remaining activity at 0.117 µM: 112%
Recombinant human TOP2B; 0.938 μM, independent replicates, read-out: Normalized % TOP2B activity, decatenation
  remaining activity at 0.938 µM: 66.9%
Recombinant human TOP2B; 1.875 μM, independent replicates, read-out: Normalized % TOP2B activity, decatenation
  remaining activity at 1.875 µM: 29.8%
Recombinant human TOP2B
  SRbeta (SRTOP2B), decatenation activity: 2.2
  IC50: 1.43 µM

## C[C@@H](CN1CC(=O)NC(=O)C1)N1CC(=O)NC(=O)C1 [dexrazoxane]
Recombinant human TOP2A; 0.059 μM, independent replicates, read-out: Normalized % TOP2A activity, decatenation
  remaining activity at 0.059 µM: 112%
Recombinant human TOP2A; 0.469 μM, independent replicates, read-out: Normalized % TOP2A activity, decatenation
  remaining activity at 0.469 µM: 114%
Recombinant human TOP2A; 0.938 μM, independent replicates, read-out: Normalized % TOP2A activity, decatenation
  remaining activity at 0.938 µM: 94.4%
Recombinant human TOP2A; 1.875 μM, independent replicates, read-out: Normalized % TOP2A activity, decatenation
  remaining activity at 1.875 µM: 68.7%
Recombinant human TOP2A; 7.500 μM, independent replicates, read-out: Normalized % TOP2A activity, decatenation
  remaining activity at 7.5 µM: 33.6%
Recombinant human TOP2A
  IC50: 3.35 µM
Recombinant human TOP2B; 0.029 μM, independent replicates, read-out: Normalized % TOP2B activity, decatenation
  remaining activity at 0.029 µM: 88.8%
Recombinant human TOP2B; 0.469 μM, independent replicates, read-out: Normalized % TOP2B activity, decatenation
  remaining activity at 0.469 µM: 75.2%
Recombinant human TOP2B; 15.000 μM, independent replicates, read-out: Normalized % TOP2B activity, decatenation
  remaining activity at 15 µM: 12.9%
Recombinant human TOP2B; 30.000 μM, independent replicates, read-out: Normalized % TOP2B activity, decatenation
  remaining activity at 30 µM: 5.87%
Recombinant human TOP2B
  SRbeta (SRTOP2B), decatenation activity: 0.75
  IC50: 4.5 µM

## CCCc1cc(=O)oc2c(C(=O)N3CCCc4ccccc43)c(OC)cc(OC)c12 [BNS-22]
Recombinant human TOP2A; [6]
  Normalized % TOP2A activity, decatenation: 129.2% and 104.9% and 108.1%
Recombinant human TOP2A; [7]
  Normalized % TOP2A activity, decatenation: 115.3% and 107.3% and 87.18%
Recombinant human TOP2A; [8]
  Normalized % TOP2A activity, decatenation: 112.3% and 85.14% and 77.75%
Recombinant human TOP2A; [9]
  Normalized % TOP2A activity, decatenation: 113.6% and 104.1% and 111.1%
Recombinant human TOP2A; [10]
  Normalized % TOP2A activity, decatenation: 107.6% and 108.2% and 94.85%
Recombinant human TOP2A; [11]
  Normalized % TOP2A activity, decatenation: 110.1% and 99.05% and 142.1%
Recombinant human TOP2A; [12]
  Normalized % TOP2A activity, decatenation: 103.6% and 97.25% and 87.84%
Recombinant human TOP2A; [13]
  Normalized % TOP2A activity, decatenation: 92.41% and 84.64% and 69.95%
Recombinant human TOP2A; [14]
  Normalized % TOP2A activity, decatenation: 58.26% and 36.7% and 30.82%
Recombinant human TOP2A; [15]
  Normalized % TOP2A activity, decatenation: 19.52% and 10.3% and 12.12%
Recombinant human TOP2A; [16]
  Normalized % TOP2A activity, decatenation: 7.598% and 6.508% and 9.979%
Recombinant human TOP2A
  IC50: 6.51 µM
[1]
  LTC = lowest toxic concentration: > 10 µM
[1]; [2]
  LDH release (inherent toxicity), mean of independent replicates: 12.6739
[1]; [3]
  LDH release (inherent toxicity), mean of independent replicates: 12.9938
[1]; [4]
  LDH release (inherent toxicity), mean of independent replicates: 12.9269
[1]; compound alone 3 µM, Suppl.Fig.4
  LDH release (inherent toxicity), mean of independent replicates: 14.5033
[1]; [5]
  LDH release (inherent toxicity), mean of independent replicates: 16.9772
Recombinant human TOP2B; [6]
  Normalized % TOP2B activity, decatenation: 110.4% and 102.5% and 86.14%
Recombinant human TOP2B; [7]
  Normalized % TOP2B activity, decatenation: 117.4% and 95.62% and 85.84%
Recombinant human TOP2B; [8]
  Normalized % TOP2B activity, decatenation: 120.4% and 94.08% and 92.01%
Recombinant human TOP2B; [9]
  Normalized % TOP2B activity, decatenation: 93.24% and 96.15% and 88.28%
Recombinant human TOP2B; [10]
  Normalized % TOP2B activity, decatenation: 119.4% and 102% and 86.29%
Recombinant human TOP2B; [11]
  Normalized % TOP2B activity, decatenation: 128.5% and 90.51% and 82.07%
Recombinant human TOP2B; [12]
  Normalized % TOP2B activity, decatenation: 113% and 60.36% and 75.6%
Recombinant human TOP2B; [13]
  Normalized % TOP2B activity, decatenation: 78.05% and 36.23% and 45.78%
Recombinant human TOP2B; [14]
  Normalized % TOP2B activity, decatenation: 36.99% and 17.69% and 24.26%
Recombinant human TOP2B; [15]
  Normalized % TOP2B activity, decatenation: 19.21% and 12.13% and 18.98%
Recombinant human TOP2B; [16]
  Normalized % TOP2B activity, decatenation: 18.37% and 9.163% and 14.61%
Recombinant human TOP2B
  SRbeta (SRTOP2B), decatenation activity: 1.6
  IC50: 4 µM
